# Read-outs that look alike come from different tables or passages of the source.
# What was measured:
# ERK = ERK phosphorylation in primary rat SNc dopaminergic neurons, p-ERK staining; assay type: cell-based; details: primary rat SNc neuron culture, A9 1 μM, 1 hour
# Protocol: Primary cultures of rat embryonic SNc neurons were stimulated with vehicle (NT) or A9 (1 μM) for 1 hour and then stained for tyrosine hydroxylase (TH) and phospho-ERK (p-ERK). Images were digitally captured with an Olympus CX640 fluorescence microscope.
# Primary Neuronal Cultures: The substantia nigra or striatal region is dissected from 4 day-old Sprague-Dawley rats and incubated in minimum essential medium (MEM) containing 20 U/ml papain for 2 hours at 37° C. The tissue is then triturated using fire-polished Pasteur pipettes in MEM supplemented with 10% fetal bovine serum, 0.45% glucose, […] insulin, 0.5 mM glutamine, 100 U/ml penicillin, and 100 μg/ml streptomycin. Cells are plated on 18 mm diameter poly-D-lysine-coated glass coverslips (Fisher 12-545-84 18cir-1D) at a density of 75,000 cells per coverslip for immunofluorescence imaging or in 12-well or 6-well tissue culture plates for immunoblotting studies. […]
# Cell preparation for microscopy: Neuroblastoma cells and rat striatal neurons are grown on glass coverslips and treated with poly-D-Lysine. […] The samples are examined by an Olympus CX640 fluorescence microscope, or scanned with a Leica TCS SP confocal laser scanning microscope. Images are digitally captured and recorded with computer. […]
# SH-SY5Y cells = experiment: Neurite length in NGF-treated SH-SY5Y neuroblastoma cells; assay type: cell-based, human; details: 96 and 168 hours; for Neurite length / neurite elongation: SH-SY5Y + NGF 10 ng/ml, FK506 100 nM, A9 10 nM, 100 nM and 1 μM
# Protocol: Analysis of neurite length in SH-SY5Y neuroblastoma cells: SH-SY5Y neuroblastoma cells develop axonal-like processes on treatment with NGF. For analysis of process length, cells (20 fields/well) are randomly photographed at 96 and 168 hours. Neurite lengths are measured on photographic prints using a Houston Instrument HI-PAD digitizing tablet connected to a computer with appropriate software (Bioquant IV); only processes more than twice the cell body length are measured. Data from identically treated wells are combined. […] Histograms are compared using a Mann-Whitney U test (α=0.05), which makes no assumptions about the shape of the distribution.
# As disclosed herein, high and sustained ERK activation induces neurite growth in […] neuroblastoma cells and protects neuronal cells from neurotoxins. To test this, SH-SY5Y human neuroblastoma cells were used, which can be induced into neuron-like phenotype by NGF treatment. This is an established method for measuring neurite growth-promoting activity in vitro in Dr. Gold's lab (Gold et al., Neurosignals. 13:122-129, 2004; Gold et al., Exp. Neurol. 147:269-278, 1997). […] Representative micrographs at 168 hours for vehicle (control), NGF (10 ng/ml), and NGF (10 ng/ml) plus A9 (100 nM) are shown in FIG. 5B.
# Solubility of A9 stock = assay type: physicochemical
# Protocol: 5. Physical properties: A9 stock can be dissolved in ethanol, methylene chloride, or DMSO as high as 25 mg/ml. The stock of A9 can then be diluted in water or saline. The final concentration in saline can reach 10 mg/ml according to our experience. A9 is very stable in organic solvents and keeps its activity (indicated by its ability to stimulate ERK activation in NS20Y cells, data not shown) for 6 months at room temperature. […] In saline, its half-life was reported to be 4 days at 37° C. (Golumb, Atherosclerosis 125:171-182, 1996). […] A similar evaluation of the chemical nature of any tyrphostin can be used to determine if it is of use to induce neurite outgrowth and regeneration in a subject.
structure (smiles),measurement,setting,value
"CC(C)(C)c1cc(C=C(C#N)C#N)cc(C(C)(C)C)c1O [A9, tyrphostin A9]",ERK phosphorylation/activation in dopaminergic neurons,ERK,induced robust ERK activation
same,ERK phosphorylation/activation in dopaminergic neurons,ERK; listed as tyrphostin A9,induced ERK phosphorylation
same,Neurite length / neurite elongation,SH-SY5Y cells,dramatically increased in length
same,Neurite length / neurite elongation,SH-SY5Y cells; listed as tyrphostin A9,stimulated neurite elongation
same,"Distribution of neurite length (cumulative histograms), shift to the right versus NGF-treated",SH-SY5Y cells; SH-SY5Y,more pronounced
same,solubility,"Solubility of A9 stock; aqueous with cosolvent or surfactant or cyclodextrin, kinetic from dmso stock, stock diluted in saline, read-out: Final concentration in saline",≥ 10 mg/mL
same,solubility,"Solubility of A9 stock; organic solvent or mixture, in ethanol, methylene chloride, or DMSO, read-out: Solubility of stock",≤ 25 mg/mL

# From patent US20090012179A1, “Use of Tyrphostins to Stimulate Neurite Outgrowth” (priority 2004, published 2009)
